# Reference: paper PMC10751773 (JACS Au, 2023)
# What was measured:
# piscidin 1 (P1) = piscidin 1 (P1) (Morone saxatilis, UniProt Q8UUG0); experiment: circular dichroism titration at […] nm, one-site two-state fit; assay type: binding
# piscidin 3 (P3) = piscidin 3 (P3) (Morone chrysops x Morone saxatilis, UniProt P0C006); experiment: as above; assay type: binding
# Chain of piscidin 3 (P3) (P0C006 whole entry): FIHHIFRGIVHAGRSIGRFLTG
# Chain of piscidin 1 (P1) (Q8UUG0 23-44): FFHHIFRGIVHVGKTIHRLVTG
smiles,measurement,setting,value
CCCCCCOC(=O)CCCCCCC/C=C\CCCCCC[C@H](C)O[C@@H]1O[C@H](CO)[C@@H](O)[C@H](O)[C@H]1O[C@@H]1O[C@H](CO)[C@@H](O)[C@H](O)[C@H]1O [SL-HE],Kd,piscidin 1 (P1),206 ± 5 µM
same,Kd,piscidin 3 (P3),391.5 ± 1.5 µM
